Data taken from patent publication US11660326B2, “Bacterial-binding peptides for treatment of infectious diseases and related inflammatory processes” (priority 2018, dated 2023).
Read-outs that look alike come from different tables or passages of the source.

What was measured:
[1] = tested on: mouse splenocytes exposed to LPS; assay: LPS-induced cytokine release by mouse splenocytes; type: cell-based, C57BL/6 mice; settings: LPS 0.5 μg/mL, 48 h, peptide 0.5, 5 and 20 μg/mL
Experimental: FIG. 6. Effect of CD6-derived peptides on in vitro LIPS-induced cytokine release by mouse splenocytes. Total spleen cell suspensions (2×10^5) from C57BL/6 mice (n=7) were stimulated in triplicate for 48 h with LPS (0.5 μg/mL), in the presence or absence of increasing concentrations (0.5, 5, and 20 μg/mL) of CD6-derived peptides (PD1, PD2, PD3, and Pcons). Cytokine levels in culture supernatants were determined by ELISA and results expressed in pg/mL as mean±SD of triplicates. Viability was >75% at 48 h in all experimental conditions. Statistical analysis was performed using a 2-tailed Mann-Whitney test, with confidence intervals of 95% (*, P<0.05; **, P<0.01; ***, P<0.001).
Spleens from 6-8 week old C57BL/6 mice (Charles River) were disaggregated by filtering through a cell strainer and, after erythrocyte lysis, cells were resuspended in RPMI 1640 with L-glutamine (Lonza) plus 10% fetal calf serum (BioWest), 100 U/mL penicillin, 100 μg/mL streptomycin and 50 μM 2-(3 Mercaptoethanol (Merck). Cells (2×10^5) were stimulated for 48 h (at 37° C. in a humidified atmosphere with 5% CO2) in U-bottomed 96-well plates (Biofil) containing LPS (0.5 μg/mL; E. coli O111:B4), in the presence or absence of increasing peptides (0.5-20 μg/mL). Culture supernatants were harvested and mouse cytokines measured by ELISA following manufacturer's instructions (BD Biosciences OptEIA sets).

[2] = Endotoxin adsorption on peptide/protein-coated Eupergit beads (LAL assay); settings: 50 UI/mL LPS, 0-150 min, vs HSA- and rshCD5-coated controls
Experimental: FIG. 11. Endotoxin adsorption assays on immobilized CD6-derived peptides and proteins. Eupergit® beads coated with different CD6-derived peptides (PD2, PD3, and Pcons) (A) or proteins (rshCD5 and rshCD6) (B) were incubated for different periods of time (0, 30, 90 and 150 min) with a 50 UI/mL endotoxin solution. Limulus amoebocyte lysate activating activity (LAL activity) of supernatants was then monitored along time and the OD 405-620 nm represented. Beads coated with Human Serum Albumin (HSA) were used as negative controls. Shown are triplicates of a representative experiment from two independent performed. Statistical analysis was done by using the 2-tailed paired T test with 95% confidence interval (***, P<0.001).
Proteins or peptides (2.5 mg each) were immobilized via NH2 groups on macroporous acrylic EUPERGIT© beads (0.2 g; Röhm-Pharma GmbH, Germany) following a previously described protocol (Zimmermann M, et al., 1999, Endotoxin adsorbent based on immobilized human serum albumin. Clin Chem Lab Med 37:373-379). Peptide or protein-coated Eupergit® beads are obtained by incubation with stirring of the polymeric beads at room temperature with a solution of the peptides of the invention in sodium phosphate buffer 100 mM pH 8 for 24 hours. After incubation, the beads were washed 3 times with 3 M sodium chloride pH 7.0, 30 mM sodium phosphate buffer pH 4.0 and 30 mM sodium phosphate buffer pH 8.0. Finally, 154 mM sodium chloride solution pH 7.0 was added to the peptide or protein-coated beads.
LPS detection was performed by using the turbidimetric-kinetic Limulus Amebocyte Lysate (LAL) kit-QCL (50-650U, Lonza) following manufacturer's instructions. Protein/peptide-coated EUPERGIT® beads were incubated 1:1 (v:v) with the provided endotoxin solution (50 UI/mL) for different periods of time (0-150 min) at room temperature following manufacturer's instructions.

[3] = Intrinsic tryptophan fluorescence binding, apparent Kd for Re-LPS; set-up: species or system Salmonella minnesota serotype Re 595; settings: for Kd: PBS, peptide 10 μg/mL, Hill fit
Experimental: (§1) FIG. 4. Kd analysis of the LPS and LTA interaction with CD6-derived peptides and protein. The apparent Kd values for the binding of peptides and proteins in study to LPS and LTA determined by fluorescence emission of tryptophan residues are shown. Peptides/proteins (10 μg/mL) were titrated with or without increasing concentrations of Re-LPS or LTA in PBS. Peptide samples (with and without either Re-LPS or LTA) and blank samples (Re-LPS or LTA alone) were excited at 295 nm, and the emission spectra recorded from 300 to 400 nm. Results are expressed as the change in peptide fluorescence (AF) at the wavelength of the emission maxima (353 nm for the peptides and 337 nm for rshCD6 protein) in the presence and absence of either Re-LPS or LTA. Results are means±SD of 3 experiments. Peptide fluorescence changes at 353 nm were fitted to the Hill equation.
(§2) Intrinsicfluorescence experiments. To explore the ability of different peptides/proteins to bind LTA (Mr=14,000, from S. aureus) and rough LPS (Re-LPS, Mr=2500, from Salmonella minnesota serotype Re 595), binding studies were carried out in an AB2 spectrofluorimeter with a thermostated cuvette holder (±0.1° C.), using 5×5 mm path-length quartz cuvettes as described (Coya J M, et al., 2015, Natural Anti-Infective Pulmonary Proteins: In Vivo Cooperative Action of Surfactant Protein SP-A and the Lung Antimicrobial Peptide SP-BN, J Immunol 195:1628-36). Re-LPS concentration was assessed by quantification of 2-keto-3-deoxyoctulosonic acid (Garcia-Verdugo I, et al., 2003, Effect of hydroxylation and N187-linked glycosylation on molecular and functional properties of recombinant human surfactant protein A, Biochemistry 42:9532-42). Peptide/protein samples (10 μg/mL) were titrated with different amounts of a stock solution of either LTA or Re-LPS in phosphate buffered saline (PBS) pH 7.2, and the Trp fluorescence emission spectra recorded with excitation at 295 nm. The fluorescence intensity readings were corrected for the dilution caused by […]. Background intensities in peptide/protein-free samples due to LTA or Re-PS were subtracted from each recording. The apparent dissociation constant (Kd) of peptide/protein-ligand complexes were obtained by nonlinear least-squares fitting to the Hill equation of the change in peptide fluorescence at 353 nm with the amount of added LTA or Re-LPS (Garcia-Verdugo I, et al., 2003, Effect of hydroxylation and N187-linked glycosylation on molecular and functional properties of recombinant human surfactant protein A, Biochemistry 42:9532-42): ΔF/ΔFmax=[L]^n/([L]^n+Kd), where ΔF is the change in fluorescence intensity at 353 nm relative to the intensity of free peptide; ΔFmax is the change in fluorescence intensity at saturating LTA or Re-LPS concentrations; [L] is the molar concentration of free ligand; and n is the Hill coefficient.

[4] = Intrinsic tryptophan fluorescence binding, apparent Kd for LTA; set-up: species or system S. aureus; settings: for Kd: PBS, peptide 10 μg/mL, Hill fit
Experimental: as §1, §2

Sequence	IL-1β release [1]	IL-6 release [1]	IL-10 release [1]	endotoxin levels (LAL assay) [2]	affinity / Kd for LPS, in words [3]	Kd [3] [nM]	affinity / Kd for LPS, in words ([3]; listed as PD2)	affinity / Kd for LTA, in words [4]	Kd [4] [nM]	affinity / Kd for LTA, in words ([4]; listed as PD2)	affinity / Kd for LPS, in words ([3]; listed as PD1)	affinity / Kd for LTA, in words ([4]; listed as PD1)
GQVEVHFRGVW (CD6.PD3)	dose-dependent inhibitory effects	dose-dependent inhibitory effects	non-statistically significant dose-dependent increased release	reduced endotoxin levels	–	–	–	–	–	–	–	–
GRVEMLEHGEW [CD6.PD2]	–	–	–	reduced endotoxin levels	lower than the prototypical DMBT1.pbs1 and CD6.cons peptides or the rshCD6 protein itself	35 ± 2	very high affinity	lower than the prototypical DMBT1.pbs1 and CD6.cons peptides or the rshCD6 protein itself	0.31 ± 0.04	very high affinity	–	–
GTVEVRLEASW [CD6.PD1]	–	–	–	–	lower than the prototypical DMBT1.pbs1 and CD6.cons peptides or the rshCD6 protein itself	3.5 ± 0.3	–	lower than the prototypical DMBT1.pbs1 and CD6.cons peptides or the rshCD6 protein itself	0.39 ± 0.06	–	very high affinity	very high affinity
